Experimental findings from patent US6359141B2, “Water soluble prodrugs of azole compounds” (Bristol-Myers Squibb Company, priority 1998, dated 2002) are described below.

Structures are written as SMILES.

The nature of series [1]: Release of parent in human plasma. It is filed as in vitro ADME. The conditions noted are these: prodrug conversion to bioactive parent.

By solubility is commonly meant the dissolved amount per volume that the medium holds. With `C[C@@H](c1nc(-c2ccc(C#N)cc2)cs1)C(Cn1cncn1)(OP(=O)([O-])[O-])c1ccc(F)cc1F.[Na+].[Na+]` (some centres unmarked) [Example 7 of WO 97/28169], the “Release of Parent in Human Plasma” value in series [1] is recorded as “No”. In the series “Solubility”, this compound displayed a solubility of over 1000 µg/mL.
In the same order, the values of `CCN(CC)Cc1ccc(C(=O)OCO[C@@](Cn2cncn2)(c2ccc(F)cc2F)[C@@H](C)c2nc(-c3ccc(C#N)cc3)cs2)cc1` [Example 1, (2R,3R)-3-[4-(4-cyanophenyl)thiazol-2-yl]-2-(2,4-difluorophenyl)-1-(1H-1,2,4-triazol-1-yl)-2-[[p-(N,N-diethylaminomethyl)benzoyloxy]methoxy]butane] are “Yes” and over 1000 µg/mL.
`C[C@@H](c1nc(-c2ccc(C#N)cc2)cs1)[C@](O)(Cn1cncn1)c1ccc(F)cc1F` [Parent, (2R,3R)-3-[4-(4-cyanophenyl)thiazol-2-yl]-2-(2,4-difluorophenyl)-1-(1H-1,2,4-triazol-1-yl)-butan-2-ol] returned a solubility in the series “physchem” of under 6 µg/mL.
